# Measured values published in patent publication US9260435B2, “Substituted imidazopyrazines as Akt kinase inhibitors” (Bayer Intellectual Property GmbH, priority 2012, dated 2016).
# What was measured:
# [1] = molecular target: His-tagged human recombinant kinase full-length Akt1 (Homo sapiens (Human), UniProt P31749); test: Akt1 kinase assay (TR-FRET); format: biochemical; conditions: 10 μM ATP, read-out: Akt1, median IC50
# Excerpt: Biological Assay 1.0: Akt1 Kinase Assay
# Akt1 inhibitory activity of compounds of the present invention was quantified employing the Akt1 TR-FRET assay as described in the following paragraphs.
# (§1) His-tagged human recombinant kinase full-length Akt1 expressed in insect cells was purchased form Invitrogen (part number PV 3599). As substrate for the kinase reaction the biotinylated peptide biotin-Ahx-KKLNRTLSFAEPG (C-terminus in amide form) was used which can be purchased e.g. from the company Biosynthan GmbH (Berlin-Buch, Germany).
# (§2) For the assay 50 nl of a 100 fold concentrated solution of the test compound in DMSO was pipetted into a black low volume 384 well microtiter plate (Greiner Bio-One, Frickenhausen, Germany), 2 μl of a solution of Akt1 in assay buffer [50 mM TRIS/HCl pH 7.5, 5 mM MgCl2, 1 mM dithiothreitol, 0.02% (v/v) Triton X-100 (Sigma)] were added and the mixture was incubated for 15 min at 22° C. to allow prebinding of the test compounds to the enzyme before the start of the kinase reaction. Then the kinase reaction was started by the addition of 3 μl of a solution of adenosine-tri-phosphate (ATP, 16.7 μM=>final conc. in the 5 μl assay volume is 10 μM) and substrate (1.67 μM=>final conc. in the 5 μl assay volume is 1 μM) in assay buffer and the resulting mixture was incubated for a reaction time of 60 min at 22° C. The concentration of Akt1 in the assay was adjusted depending of the activity of the enzyme lot and was chosen appropriate to have the assay in the linear range, typical enzyme concentrations were in the range of about 0.05 ng/μl (final conc. in the 5 μl assay volume).
# (§3) The reaction was stopped by the addition of 5 μl of a solution of HTRF detection reagents (200 nM streptavidine-XL665 [Cisbio] and 1.5 nM anti-phosho-Serine antibody [Millipore, cat. #35-001] and 0.75 nM LANCE Eu-W 1024 labeled anti-mouse IgG antibody [Perkin Elmer]) in an aqueous EDTA-solution (100 mM EDTA, 0.1% (w/v) bovine serum albumin in 50 mM HEPES/NaOH pH 7.5).
# (§4) The resulting mixture was incubated 1 h at 22° C. to allow the binding of the biotinylated phosphorylated peptide to the streptavidine-XL665 and the antibodies. Subsequently the amount of phosphorylated substrate was evaluated by measurement of the resonance energy transfer from the anti-mouse-IgG-Eu-Chelate to the streptavidine-XL665. Therefore, the fluorescence emissions at 620 nm and 665 nm after excitation at 350 nm was measured in a HTRF reader, e.g. a Rubystar (BMG Labtechnologies, Offenburg, Germany) or a Viewlux (Perkin-Elmer). The ratio of the emissions at 665 nm and at […] was taken as the measure for the amount of phosphorylated substrate. The data were normalised (enzyme reaction without inhibitor=0% inhibition, all other assay components but no enzyme=100% inhibition).
# [2] = molecular target: His-tagged human recombinant kinase full-length Akt2 (Homo sapiens (Human), UniProt P31751); test: Akt2 kinase assay (TR-FRET); format: biochemical; conditions: 10 μM ATP, read-out: Akt2, median IC50
# Chain of His-tagged human recombinant kinase full-length Akt2 (P31751 whole entry): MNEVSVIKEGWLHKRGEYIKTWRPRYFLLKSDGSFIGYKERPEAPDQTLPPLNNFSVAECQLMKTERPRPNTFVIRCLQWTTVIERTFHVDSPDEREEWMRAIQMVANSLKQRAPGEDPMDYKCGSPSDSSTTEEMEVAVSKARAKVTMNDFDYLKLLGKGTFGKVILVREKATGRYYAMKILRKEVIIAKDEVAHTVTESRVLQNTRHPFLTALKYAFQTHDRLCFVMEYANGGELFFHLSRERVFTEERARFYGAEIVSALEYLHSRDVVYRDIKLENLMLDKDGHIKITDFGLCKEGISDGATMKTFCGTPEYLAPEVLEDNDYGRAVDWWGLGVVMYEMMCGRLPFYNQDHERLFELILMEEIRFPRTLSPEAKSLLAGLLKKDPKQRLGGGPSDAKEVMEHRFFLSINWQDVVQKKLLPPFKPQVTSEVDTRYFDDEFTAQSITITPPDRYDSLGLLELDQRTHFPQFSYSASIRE
# Excerpt: Biological Assay 2.0: Akt2 Kinase Assay
# Akt2 inhibitory activity of compounds of the present invention was quantified employing the Akt2 TR-FRET assay as described in the following paragraphs.
# as §1, with “full-length Akt2” for “full-length Akt1”, “cells and activated by PDK1” for “cells”, “purchased from” for “purchased form”, “PV 3975).” for “PV 3599).”
# as §2, with “Akt2” for “Akt1”, “0.2” for “0.05”
# as §3
# as §4, with “TR-FRET” for “HTRF”
# phospho-AKT at S473 = test: Cellular p-AKT1/2/3-S473 assay in KPL-4 cells; format: cell-based; conditions: Homo sapiens, KPL4; KPL-4 breast tumour cell line, 2 hours treatment; read-out: pAKT-S743 median IC50
# Protocol: The phospho-substrates of PI3K-AKT-mTOR axis were used as the readouts to reflect pathway inhibition. Cells were seeded at 60-80% confluency per well in 96-well cell culture plates. After overnight incubation at 37° C. 5% CO2, cells were treated with compounds and vehicle at 37° C. for 2 hours. […] All measurements where at least done in duplicates and confirmed by independent repetition. Alternatively pAKT-S473 was measured using the “Akt Duplex” of the MULTI-SPOT® Assay System (Fa. Meso Scale Discovery, Cat# N41100B-1) following manufacturers instructions. Each assay used 20 μg of protein extract and measured total AKT and p-AKT content simultaneously in one well. All measurements where at least done in duplicates and confirmed by independent repetition. Values for P-AKT are expressed as percentage of P-AKT level compared to total-AKT content of the extracts.
# p-4E-BP1 at T70 = test: Cellular p-4E-BP1-T70 assay in KPL-4 cells; format: cell-based; conditions: Homo sapiens, KPL4; KPL-4 breast tumour cell line, 2 hours treatment; read-out: P4EBP1-T70 median IC50
# Protocol: The molecular mechanism of action was investigated in a set of experiments to assess the inhibition of the PI3K-AKT-mTOR pathway in responsive cell lines such as KPL-4 breast tumour cell line (PIK3CA^H1047R, HER2^O/E and hormone independent). The phospho-substrates of PI3K-AKT-mTOR axis were used as the readouts to reflect pathway inhibition. Cells were seeded at 60-80% confluency per well in 96-well cell culture plates. After overnight incubation at 37° C. 5% CO2, cells were treated with compounds and vehicle at 37° C. for 2 hours. Thereafter, cells were lysed in 150 μl lysis buffer and the levels of phospho-AKT at T308 and S473 and p-4E-BP1 at T70 sites were determined with the corresponding AlphaScreen® SureFire® assay kits (Perkin Elmer: 4E-BP1 Assay Kit Cat # TRG4E2S10K; Akt 1/2/3 p-Ser 473 #TGRA4S500 and Akt 1/2/3 p-Thr 308 #TGRA3S500 as well as IgG detection Kit #6760617M) as described in the manuals. All measurements where at least done in duplicates and confirmed by independent repetition. Alternatively pAKT-S473 was measured using the “Akt Duplex” of the MULTI-SPOT® Assay System (Fa. Meso Scale Discovery, Cat# N41100B-1) following manufacturers instructions. Each assay used 20 μg of protein extract and measured total AKT and p-AKT content simultaneously in one well. All measurements where at least done in duplicates and confirmed by independent repetition. Values for P-AKT are expressed as percentage of P-AKT level compared to total-AKT content of the extracts.
# [3] = test system: KPL-4 breast cancer cell line; test: Tumor cell proliferation assay (CellTiter-Glo, 72 h), KPL-4; format: cell-based; conditions: Homo sapiens, KPL4, 72 h drug exposure
# Protocol: (§5) Biological Assay 4.0: Tumor Cell Proliferation Assays
# (§6) Compounds were tested in a cell-based assay that measures the capacity of the compounds to inhibit tumour cell proliferation following a 72 h drug exposure. Cell viability is determined using CellTiter-Glow® (CTG, Promega, cat# G7571/2/3). The CellTiter-Glo® Luminescent Cell Viability Assay is a homogeneous method to determine the number of viable cells in culture. Detection is based on using the luciferase reaction to measure the amount of ATP from viable cells. The amount of ATP in cells correlates with cell viability. Within minutes after a loss of membrane integrity, cells lose the ability to synthesize ATP, and endogenous ATPases destroy any remaining ATP; thus the levels of ATP fall precipitously.
# (§7) Cells were plated at 3000-5000 cells/well (depending on the cell lines) in 90 μL growth medium on MTPs (Corning; #3603, black plate, clear flat bottom). For each cell line assayed, cells were plated onto a separate plate for determination of […] at t=0 hour and t=72 hour time points. Following overnight incubation at 37° C., chemiluminescence values for the t=0 samples were determined after adding 10 μl medium and 100 μl CTG solution according to manufacture protocol. Plates for the t=72 hour time points were treated with compounds diluted into growth medium at ten times final concentration added in 10 μL to the cell culture plate. Cells were then incubated for 72 hours at 37° C. Chemiluminescence values for the t=72 hour samples were determined. […] Experiments were controlled using a reference compound as standard.
# (§8) Preferred compounds of the present invention show in this assay an inhibition of cell growth of cell lines such as the KPL-4 breast cancer cell line and the MCF-7 breast tumour cell line ([…], hormone dependent) with a median IC50 of <10 μM, more preferably, median IC50≦1 μM.
# [4] = test system: MCF-7 breast tumour cell line; test: Tumor cell proliferation assay (CellTiter-Glo, 72 h), MCF-7; format: cell-based; conditions: Homo sapiens, MCF7, 72 h drug exposure
# Protocol: as §5, §6, §7, §8
# Chain of His-tagged human recombinant kinase full-length Akt1 (P31749 whole entry): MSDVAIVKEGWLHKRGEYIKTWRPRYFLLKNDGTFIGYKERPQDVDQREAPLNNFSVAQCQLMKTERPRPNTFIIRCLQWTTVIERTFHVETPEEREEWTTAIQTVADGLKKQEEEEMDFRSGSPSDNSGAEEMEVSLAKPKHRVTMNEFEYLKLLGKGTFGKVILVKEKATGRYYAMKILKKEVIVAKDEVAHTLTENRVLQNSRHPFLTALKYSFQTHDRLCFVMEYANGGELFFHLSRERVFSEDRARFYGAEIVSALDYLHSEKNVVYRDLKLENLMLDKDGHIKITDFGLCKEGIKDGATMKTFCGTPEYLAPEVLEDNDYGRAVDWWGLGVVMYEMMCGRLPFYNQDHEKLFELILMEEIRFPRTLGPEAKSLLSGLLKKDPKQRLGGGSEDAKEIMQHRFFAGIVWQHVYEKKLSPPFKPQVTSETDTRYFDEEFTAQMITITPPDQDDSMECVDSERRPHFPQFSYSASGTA
IC50 [1],IC50 [2],IC50 (phospho-AKT at S473),IC50 (p-4E-BP1 at T70),IC50 [3],IC50 [4],SMILES,"inhibition at 1.67 µM ([3]; 1.67 μM, read-out: KPL-4 median inhibition at 1.67 μM (%))","inhibition at 1.67 µM ([4]; 1.67 μM, read-out: MCF-7 median inhibition at 1.67 μM (%))"
1600 nM,970 nM,–,–,–,–,"NC1(c2ccc(-c3nc4c(O)nccn4c3-c3ccccc3)cc2)CCC1 [Example 1, 2-[4-(1-Aminocyclobutyl)phenyl]-3-phenylimidazo[1,2-a]pyrazin-8-ol]",–,–
–,–,37 nM,29 nM,10000 nM,2400 nM,"CCOC(=O)c1cn2c(-c3ccccc3)c(-c3ccc(C4(N)CCC4)cc3)nc2cn1 [Example 5, Ethyl 2-[4-(1-aminocyclobutyl)phenyl]-3-phenylimidazo[1,2-a]pyrazine-6-carboxylate]",15.2%,40.6%
